Type in all cases: cell-based
Data set [1] has as its system L. major Amastigotes. The data set is described as follows: Leishmania major amastigote assay. Particulars: read-out: L. major Amastigotes EC50; Table 4; r^2 values >0.75.
Data set [2] relates to NIH 3T3. Briefly: NIH 3T3 toxicity. Particulars: Table 4.
Data set [3] concerns HepG2. The data set is described as follows: HepG2 toxicity. The settings on record: Table 4.

Regarding “6-(3-morpholinophenyl)-N-(1,2,4-triazin-3-yl)quinazolin-4-amine [9d]”, the EC50 – broadly, the concentration that produces a half-maximal response – in data set [1] was above 15 µM. In addition, the “NIH 3T3 TC50” value in data set [2] is above 50 µM. The “HepG2 TC50” value in data set [3] was above 20 µM.

Values taken from publication PMC5682201 (European journal of medicinal chemistry, 2017).
